Literature values, collected in patent publication US20060024344A1 (priority 2004, published 2006).
“Also recorded” adds a separate entry of the source.

Columns and labels:
Settings in all cases: in vivo
fish in schoold = system: fish in schoold
[1] = system: rainbow trout, blugill and channel catfish
human skin = system: human skin
human tongue = system: human tongue
sharks [2] = system: sharks
sharks [3] = system: sharks; remark: listed apart in the source
captive lemon sharks = system: captive lemon sharks
sharks [4] = system: sharks; remark: listed apart in the source

Compound | observed effect on fish (fish in schoold) | efficiency to repel sharks (sharks [3]) | also measured
C=CCN=C=S [allyl isothiocyanate] | strongly stimulated the entire body | – | –
COc1ccc(O)c(C(C)(C)C)c1 [butylated hydroxyanisole] | – | – | toxicity for fishes compared with zebra mussel [1]: substantially greater
COc1cc(CNC(=O)CCCC/C=C/C(C)C)ccc1O [capsaicin, 8-methyl-n-vanillyl-6-nonenamide] | – | – | skin reaction (flare, irritation) (human skin): no flare and irritation; skin temperature below which burning pain and hyperaesthesia cease completely (human skin): below 28 deg C.; concentration producing perceptible warmth at subcutaneous and intramuscular level (human skin; sc): 10 µg/mL; concentration producing persistent burning at subcutaneous and intramuscular level (human skin; sc): 100 µg/mL; concentration at which detected in humans (human tongue): 0.1 µg/mL; concentration provoking a sensation of perceptible warmth on tongue (human tongue): 1 µg/mL; concentration provoking a sensation of persistent burning on tongue (human tongue): 10 µg/mL
CCS [ethyl mercaptan] | induced tetanic paralysis | – | –
CC1(C)[C@@H]2CC[C@@]1(C)[C@H](OC(=O)CSC#N)C2 [isobornyl thiocyanoacetate] | induced tetanic paralysis | – | –
CC(=O)OC[C@H](C)CCC[C@@H](C)[C@H]1CCC2C3C(C[C@H](O)[C@@]21C)[C@@]1(C)CC[C@@H](O)C[C@H]1C[C@H]3O[C@@H]1O[C@H](CO)[C@H](O)[C@H](O)[C@H]1O (stereo partly drawn) [mosesin-4] | – | – | shark repellent activity (sharks [2]): shows shark repellent activity
O=C(CBr)c1ccccc1 [phenacyl bromide] | seriously irritated the eyes and impaired vision | – | –
O=C(CCl)c1ccccc1 [phenacyl chloride] | seriously irritated the eyes and impaired vision | – | –
Oc1ccccc1 [phenol] | strongly stimulated the entire body | – | –
O=S([O-])O.[Na+] [sodium bisulfite] | respiratory impairment | – | –
CCCCCCCCCCOS(=O)(=O)[O-].[Na+] [sodium decyl sulfate] | – | revealed efficiency to repel sharks | –
CCCCCCCCCCCCOS(=O)(=O)[O-].[Na+] [sodium dodecyl sulfate] | – | revealed efficiency to repel sharks | shark repellent effect (captive lemon sharks): strongly repelled sharks
CCCCCCCCCCCCCCCCCCOS(=O)(=O)[O-].[Na+] [sodium octadecyl sulfate] | – | revealed efficiency to repel sharks | –
CCCCCCCCOS(=O)(=O)[O-].[Na+] [sodium octyl sulfate] | – | revealed efficiency to repel sharks | –
CCCCCCCCCCCCCCOS(=O)(=O)[O-].[Na+] [sodium tetradecyl sulfate] | – | revealed efficiency to repel sharks | –
O=C(OC[C@H]1O[C@@H](OC(=O)c2cc(O)c(O)c(OC(=O)c3cc(O)c(O)c(O)c3)c2)[C@H](OC(=O)c2cc(O)c(O)c(OC(=O)c3cc(O)c(O)c(O)c3)c2)[C@@H](OC(=O)c2cc(O)c(O)c(OC(=O)c3cc(O)c(O)c(O)c3)c2)[C@@H]1OC(=O)c1cc(O)c(O)c(OC(=O)c2cc(O)c(O)c(O)c2)c1)c1cc(O)c(O)c(OC(=O)c2cc(O)c(O)c(O)c2)c1 [tannic acid] | – | – | toxicity for fishes compared with zebra mussel [1]: substantially greater
N#CSCCCCC(Cl)(Cl)Cl [thiocyanic acid 5,5,5-trichloro amyl ester] | flaccid paralysis; also recorded: respiratory impairment | – | –
copper acetate | – | – | effectivity as a shark deterrent (sharks [4]): reduced effectivity as a deterrent
magnesium dodecyl sulfate | – | revealed efficiency to repel sharks | –
sodium dodecyl ether sulfate | – | revealed efficiency to repel sharks | –
